Measured values from the NIST ThermoML archive (doi:10.1021/je2000606).
± gives the expanded uncertainty stated by the source.

What was measured:
[1] = 101.33 kPa, Liquid; for viscosity: Falling or rolling sphere viscometry; for mass density: Vibrating tube method
[2] = refractive index (Na D-line) (dimensionless); settings: 101.33 kPa, Liquid, Standard Abbe refractometry

| Structure (SMILES) | viscosity ([1]; 298.15 K) [mPa·s] | mass density ([1]; 298.15 K) [kg/m3] | viscosity ([1]; 303.15 K) [mPa·s] | mass density ([1]; 303.15 K) [kg/m3] | viscosity ([1]; 308.15 K) [mPa·s] | mass density ([1]; 308.15 K) [kg/m3] | viscosity ([1]; 313.15 K) [mPa·s] | mass density ([1]; 313.15 K) [kg/m3] | refractive index ([2]; 298.15 K) | refractive index ([2]; 303.15 K) | refractive index ([2]; 308.15 K) | refractive index ([2]; 313.15 K) |
| --- | --- | --- | --- | --- | --- | --- | --- | --- | --- | --- | --- | --- |
| CCCCn1cc[n+](C)c1.C[C@H](N)C(=O)[O-] [3-butyl-1-methyl-1H-imidazolium L-alaninate] | 78.3 ± 1.4 | 1080.2 ± 1 | 59.77 ± 0.79 | 1076.5 ± 1 | 47.03 ± 0.63 | 1074.2 ± 1 | 37.95 ± 0.53 | 1071.1 ± 1 | 1.5184 ± 0.0004 | 1.5168 ± 0.0004 | 1.5153 ± 0.0004 | 1.5135 ± 0.0004 |
| CO [methanol] | 0.532 ± 0.2 | 786.4 ± 1 | 0.515 ± 0.2 | 782.2 ± 1 | 0.465 ± 0.2 | 776.7 ± 1 | 0.441 ± 0.2 | 772.9 ± 1 | 1.3266 ± 0.0004 | 1.3243 ± 0.0004 | 1.3224 ± 0.0004 | 1.3208 ± 0.0004 |
| OCc1ccccc1 [benzenemethanol] | 5.55 ± 0.21 | 1041.64 ± 1 | 4.675 ± 0.21 | 1037.42 ± 1 | 4.01 ± 0.2 | 1033.84 ± 1 | 3.522 ± 0.2 | 1030.43 ± 1 | 1.5371 ± 0.0004 | 1.5349 ± 0.0004 | 1.5323 ± 0.0004 | 1.5301 ± 0.0004 |
